Data from patent EP2607478A1, “Phenanthroline treated MSC” (Universiteit Twente, priority 2011, dated 2013).
Counter-ions that a name gives are not always drawn.

System: MSCs
Experiment: Gene expression analysis by real-time qPCR in treated MSCs
Type: cell-based, Human
Conditions: primary MSCs, 1 nM, 10 nM and 1 uM, 2 days, qPCR (Figure 7)
Experimental: MSCs were seeded in triplicate in 6-well plates at 5000 cells/cm^2 and allowed to attach for 10-15 hours in proliferation medium. Upon reaching near confluency, cells were treated as described above. After 2 days of treatment and 2 subsequent days of incubation with fresh medium, cells were lysed immediately with TRIzol. RNA was isolated using a Bioke RNA II nucleospin RNA isolation kit (Machery Nagel) and RNA concentrations were measured using an ND100 spectrophotometer (Nanodrop technologies, USA). cDNA was synthesized from 100 ng of RNA, using iScript (BioRad) according to the manufacturer's protocol. For qualitative PCR, a master mix, containing distilled water, forward primer, reverse primer (Sigma Genosys), BSA, and SYBR green I mix (all from Invitrogen) was prepared. Real-time qPCR was performed in a Light-Cycler (Roche). Light-Cycler data was analyzed using the fit points method of Light-Cycler software. The baseline was set at the lower log-linear part above baseline noise and the crossing […] (Ct value) was determined. Ct values were normalized to the 18S housekeeping gene and delta Ct (Ct, control ― Ct, sample) was used to calculate the upregulation in gene expression (53).

Q: With `CCN(CC)CCCC(C)Nc1c2ccc(Cl)cc2nc2ccc(OC)cc12` (stereo not shown) [Quinacrine hydrochloride] as the compound, how does the VEGF gene expression read?
A: Its VEGF gene expression is “does not affect VEGF gene expression”.
